According to patent US10307404B1, “Ocular formulations for drug-delivery to the posterior segment of the eye” (priority 2013, dated 2019):
Read-outs that look alike come from different tables or passages of the source.

Tests used:
Solubility = type: physicochemical
[1] = PK of topical ocular sodium phosphate-based Gel Drop, concentrations 1 hour after last dose; type: in vivo, Dutch-belted rabbits; conditions: Dutch-belted, rabbit
Source text: The Gel Drop of Compound-I was applied to eyes of Dutch-belted rabbits.

For `Cl.NC(=O)c1c(OCc2c(F)cc(Br)cc2F)nsc1NC(=O)NCCCCN1CCCC1` [Compound-I, 3-[(4-bromo-2,6-difluorophenyl)methoxy]-5-[[[[4-(1-pyrrolidinyl)butyl]amino]carbonyl]amino]-4-isothiazolecarboxamide hydrochloride], which “solubility provided (clinical dose strengths)” value (Solubility; HP-β-CD (KLEPTOSE HPB) at equal to or more than 1:6 molar ratio) is on record?
Its value is 0.1-1.0%.

What about the “solubility provided (clinical dose strengths)” value (Solubility; SBE-β-CD (CAPTISOL) at equal to or more than 1:2 ratio) of the same molecule?
Its value is 0.1-1.0%.

And the Solubility (Solubility; pH 7.5 (0.05M NaH2PO4))?
The Solubility was 1000 µg/mL.

And the Solubility (Solubility; pH 9.0 (0.05 m Na2HPO4))?
The Solubility was 700 µg/mL.

And the concentration at 1 h ([1]; AH (aqueous humor), 2 mg/ml, pH 6, 2 mg/ml pH 6 BAK 0.005% Gly 2% Osmo 232, 3x/day 5 days, read-out: Mean [AH])?
The concentration at 1 h was 30 nM.

What about the concentration at 1 h ([1]; AH (aqueous humor), 2 mg/ml, pH 6, 2 mg/ml pH 6.0 Phos 0.02% BAK 0.005% Gly 2% PS80 1% Tylox 0.2%, 3x/day 5 days, read-out: Mean [AH]) of the same molecule?
The concentration at 1 h was 13.8 nM.

What about the concentration at 1 h ([1]; AH (aqueous humor), 2 mg/ml, pH 6, 2 mg/ml pH 6 Phos 0.05% BAK 0.005% Gly 2% PS80 1% Osmo 261, 3x/day 5 days, read-out: Mean [AH]) of the same molecule?
The concentration at 1 h was 25.5 nM.

And the concentration at 1 h ([1]; AH (aqueous humor), 2 mg/ml, pH 6, 2 mg/ml pH 6.0 Phos 0.05% BAK 0.005% Gly 2%, 3x/day 5 days, read-out: Mean [AH])?
The concentration at 1 h was 32.2 nM.

What about the concentration at 1 h ([1]; AH (aqueous humor), 2 mg/ml, pH 6, 2 mg/ml pH 6.0 Phos 0.2% BAK 0.005% Gly 2%, 3x/day 5 days, read-out: Mean [AH]) of the same molecule?
The concentration at 1 h was 14.8 nM.

What about the concentration at 1 h ([1]; AH (aqueous humor), 4 mg/ml, pH 6, 4 mg/ml pH 6.0 Phos 0.2% BAK 0.005% Gly 2%, 3x/day 5 days, read-out: Mean [AH]) of the same molecule?
The concentration at 1 h was 25 nM.

What about the concentration at 1 h ([1]; AH (aqueous humor), 4 mg/ml, pH 6, 4 mg/ml pH 6.0 Phos 2% BAK 0.005% Gly 2% PS80 1% Tylox 0.2%, 3x/day 5 days, read-out: Mean [AH]) of the same molecule?
Its concentration at 1 h is 21.1 nM.

What about the concentration at 1 h ([1]; AH (aqueous humor), 6 mg/ml, pH 5.9, 6 mg/ml pH 5.9 Phos 0.05% BAK 0.005% Gly 2% PS80 1% Tylox 0.1% Polox 0.2% Osmo 270, 3x/day 4 days, read-out: Mean [AH]) of the same molecule?
Its concentration at 1 h is 222 nM.

And the concentration at 1 h ([1]; AH (aqueous humor), 6 mg/ml, pH 5.9, 6 mg/ml pH 5.9 Phos 0.1% BAK 0.005% Gly 2% Polox 0.2% Osmo 257, 3x/day 4 days, read-out: Mean [AH])?
Its concentration at 1 h is 55.4 nM.

What about the concentration at 1 h ([1]; aqueous humor (AH), 1 mg/ml, pH 6, 1 mg/ml pH 6 BAK 0.005% Gly 2% Osmo 234, 3x/day 5 days, read-out: Mean [AH]) of the same molecule?
Its concentration at 1 h is 17.1 nM.

And the concentration at 1 h ([1]; aqueous humor (AH), 1 mg/ml, pH 6, 1 mg/ml pH 6.0 Phos 0.05% BAK 0.005% Gly 2% PS80 0.01% Tylox 0.2%, 3x/day 5 days, read-out: Mean [AH])?
Its concentration at 1 h is 9.09 nM.

What about the concentration at 1 h ([1]; aqueous humor (AH), 1 mg/ml, pH 6, 1 mg/ml pH 6 Phos 0.05% BAK 0.005% Gly 2%, 3x/day 5 days, read-out: Mean [AH]) of the same molecule?
The concentration at 1 h was 16.4 nM.

What about the concentration at 1 h ([1]; aqueous humor (AH), 1 mg/ml, pH 6, 1 mg/ml pH 6.0 Phos 0.2% BAK 0.005% Gly 2% PS80 1% Tylox 0.2%, 3x/day 5 days, read-out: Mean [AH]) of the same molecule?
The concentration at 1 h was 6.27 nM.

What about the concentration at 1 h ([1]; aqueous humor (AH), 1 mg/ml, pH 6, 1 mg/ml pH 6.0 Phos 0.2% BAK 0.005% Gly 2%, 3x/day 5 days, read-out: Mean [AH]) of the same molecule?
The concentration at 1 h was 20.6 nM.

And the concentration at 1 h ([1]; aqueous humor (AH), 2 mg/ml, pH 6, 2 mg/ml pH 6 Phos 0.05% BAK 0.005% Gly 2% Osmo 244, 3x/day 5 days, read-out: Mean [AH])?
Its concentration at 1 h is 27.8 nM.

What about the concentration at 1 h ([1]; aqueous humor (AH), 2 mg/ml, pH 6, 2 mg/ml pH 6.0 Phos 0.05% BAK 0.005% Gly 2% PS80 1% Tylox 0.2%, 3x/day 5 days, read-out: Mean [AH]) of the same molecule?
The concentration at 1 h was 18.2 nM.

And the concentration at 1 h ([1]; aqueous humor (AH), 2 mg/ml, pH 6, 2 mg/ml pH 6.0 Phos 0.1% BAK 0.005% Gly 2%, 3x/day 5 days, read-out: Mean [AH])?
Its concentration at 1 h is 18.9 nM.

What about the concentration at 1 h ([1]; aqueous humor (AH), 2 mg/ml, pH 6, 2 mg/ml pH 6 Phos 0.2% BAK 0.005% Gly 2% Osmo 257, 3x/day 5 days, read-out: Mean [AH]) of the same molecule?
Its concentration at 1 h is 29.5 nM.

And the concentration at 1 h ([1]; aqueous humor (AH), 2 mg/ml, pH 6, 2 mg/ml pH 6 Phos 0.2% BAK 0.005% Gly 2% PS80 1% Osmo 281, 3x/day 5 days, read-out: Mean [AH])?
The concentration at 1 h was 19.7 nM.

What about the concentration at 1 h ([1]; aqueous humor (AH), 2 mg/ml, pH 6.1, 2 mg/ml pH 6.1 Phos […] Osmo 34, 3x/day 4 days, read-out: Mean [AH]) of the same molecule?
The concentration at 1 h was 13.7 nM.

And the concentration at 1 h ([1]; choroid, 1 mg/ml, pH 6, 1 mg/ml pH 6 BAK 0.005% Gly 2% Osmo 234, 3x/day 5 days, read-out: MEAN [choroid])?
The concentration at 1 h was 359 nM.

What about the concentration at 1 h ([1]; choroid, 1 mg/ml, pH 6, 1 mg/ml pH 6 BAK 0.005% Gly 2% PS80 1% Tylox 0.1% Polox 0.2% Osmo 237, 3x/day 5 days, read-out: MEAN [choroid]) of the same molecule?
Its concentration at 1 h is 339 nM.

And the concentration at 1 h ([1]; choroid, 1 mg/ml, pH 6, 1 mg/ml pH 6.0 Phos 0.05% BAK 0.005% Gly 2% PS80 0.01% Tylox 0.2%, 3x/day 5 days, read-out: MEAN [choroid])?
The concentration at 1 h was 295 nM.

What about the concentration at 1 h ([1]; choroid, 1 mg/ml, pH 6, 1 mg/ml pH 6 Phos 0.05% BAK 0.005% Gly 2%, 3x/day 5 days, read-out: MEAN [choroid]) of the same molecule?
Its concentration at 1 h is 398 nM.

What about the concentration at 1 h ([1]; choroid, 1 mg/ml, pH 6, 1 mg/ml pH 6.0 Phos 0.2% BAK 0.005% Gly 2% PS80 1% Tylox 0.2%, 3x/day 5 days, read-out: MEAN [choroid]) of the same molecule?
Its concentration at 1 h is 423 nM.

What about the concentration at 1 h ([1]; choroid, 1 mg/ml, pH 6, 1 mg/ml pH 6.0 Phos 0.2% BAK 0.005% Gly 2%, 3x/day 5 days, read-out: MEAN [choroid]) of the same molecule?
The concentration at 1 h was 519 nM.

What about the concentration at 1 h ([1]; choroid, 1 mg/ml, pH 6.1, 1 mg/ml pH 6.1 BAK 0.005% Gly 2% Osmo 230, 3x/day 5 days, read-out: MEAN [choroid]) of the same molecule?
Its concentration at 1 h is 537 nM.

And the concentration at 1 h ([1]; choroid, 2 mg/ml, pH 5.9, 2 mg/ml pH 5.9 Phos 0.05% BAK 0.005% Gly 2% Osmo 233, 3x/day 5 days, read-out: MEAN [choroid])?
Its concentration at 1 h is 362 nM.

What about the concentration at 1 h ([1]; choroid, 2 mg/ml, pH 6, 2 mg/ml pH 6 BAK 0.005% Gly 2% Osmo 232, 3x/day 5 days, read-out: MEAN [choroid]) of the same molecule?
The concentration at 1 h was 589 nM.

And the concentration at 1 h ([1]; choroid, 2 mg/ml, pH 6, 2 mg/ml pH 6.0 Phos 0.02% BAK 0.005% Gly 2% PS80 1% Tylox 0.2%, 3x/day 5 days, read-out: MEAN [choroid])?
Its concentration at 1 h is 599 nM.

What about the concentration at 1 h ([1]; choroid, 2 mg/ml, pH 6, 2 mg/ml pH 6 Phos 0.05% BAK 0.005% Gly 2% Osmo 244, 3x/day 5 days, read-out: MEAN [choroid]) of the same molecule?
Its concentration at 1 h is 422 nM.

What about the concentration at 1 h ([1]; choroid, 2 mg/ml, pH 6, 2 mg/ml pH 6 Phos 0.05% BAK 0.005% Gly 2% PS80 1% Osmo 261, 3x/day 5 days, read-out: MEAN [choroid]) of the same molecule?
The concentration at 1 h was 559 nM.

What about the concentration at 1 h ([1]; choroid, 2 mg/ml, pH 6, 2 mg/ml pH 6.0 Phos 0.05% BAK 0.005% Gly 2%, 3x/day 5 days, read-out: MEAN [choroid]) of the same molecule?
The concentration at 1 h was 528 nM.
